Several values for one entry are separate records, joined by “and”; a condition that tells them apart may be missing. Equal values may be shown once.
Tests used:
[1] = test system: SARS-CoV-2 (WA1/2020); test: SARS-CoV-2 infection of Huh-7.5 cells (nucleocapsid staining); settings: 24 and 72 h
[2] = biological target: T1, JAK2 (Homo sapiens, UniProt O60674); test: HotSpot kinase assay; assay type: biochemical; settings: read-out: % Enzyme Activity (relative to DMSO controls)
T1 construct: purchased Reaction Biology Corporation

[3] = biological target: T2, DAPK1 (Homo sapiens, UniProt P53355); test: HotSpot kinase assay; assay type: biochemical; settings: read-out: % Enzyme Activity (relative to DMSO controls)
T2 construct: purchased Reaction Biology Corporation

[4] = biological target: T3, BTK (Homo sapiens, UniProt Q06187); test: HotSpot kinase assay; assay type: biochemical; settings: read-out: % Enzyme Activity (relative to DMSO controls)
T3 construct: purchased Reaction Biology Corporation

[5] = biological target: T4, P38a/MAPK14 (Homo sapiens, UniProt Q16539); test: HotSpot kinase assay; assay type: biochemical; settings: read-out: % Enzyme Activity (relative to DMSO controls)
T4 construct: purchased Reaction Biology Corporation
T4 sequence (Q16539 whole entry): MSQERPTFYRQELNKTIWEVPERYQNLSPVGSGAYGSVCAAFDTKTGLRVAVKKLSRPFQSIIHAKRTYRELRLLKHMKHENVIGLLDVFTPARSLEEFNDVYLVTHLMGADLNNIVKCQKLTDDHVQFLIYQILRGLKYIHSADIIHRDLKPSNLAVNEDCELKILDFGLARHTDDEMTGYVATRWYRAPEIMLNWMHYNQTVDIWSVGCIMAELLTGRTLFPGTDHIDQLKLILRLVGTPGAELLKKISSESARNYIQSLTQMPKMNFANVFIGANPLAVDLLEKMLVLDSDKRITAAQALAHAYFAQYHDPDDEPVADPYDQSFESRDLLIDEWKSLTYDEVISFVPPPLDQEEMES

[6] = biological target: T5, RAF1 (Homo sapiens, UniProt P04049); test: HotSpot kinase assay; assay type: biochemical; settings: read-out: % Enzyme Activity (relative to DMSO controls)
T5 construct: purchased Reaction Biology Corporation
T5 sequence (P04049 whole entry): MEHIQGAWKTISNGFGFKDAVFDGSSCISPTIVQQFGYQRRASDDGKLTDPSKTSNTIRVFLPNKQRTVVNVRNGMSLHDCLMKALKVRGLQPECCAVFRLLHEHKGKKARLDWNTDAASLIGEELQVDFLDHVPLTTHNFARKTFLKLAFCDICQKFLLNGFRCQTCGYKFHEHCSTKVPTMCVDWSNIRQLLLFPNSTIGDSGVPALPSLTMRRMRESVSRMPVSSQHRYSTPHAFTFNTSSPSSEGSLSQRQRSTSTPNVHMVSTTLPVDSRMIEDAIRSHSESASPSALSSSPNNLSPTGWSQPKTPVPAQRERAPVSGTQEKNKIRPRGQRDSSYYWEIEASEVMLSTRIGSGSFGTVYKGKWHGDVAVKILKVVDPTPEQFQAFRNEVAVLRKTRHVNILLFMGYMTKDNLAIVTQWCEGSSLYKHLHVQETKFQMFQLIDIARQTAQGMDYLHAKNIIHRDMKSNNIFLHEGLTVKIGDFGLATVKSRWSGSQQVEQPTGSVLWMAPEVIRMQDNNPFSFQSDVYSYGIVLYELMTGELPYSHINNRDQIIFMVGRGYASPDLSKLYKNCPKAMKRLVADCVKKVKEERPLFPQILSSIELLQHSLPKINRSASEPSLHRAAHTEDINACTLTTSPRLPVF

[7] = biological target: T6, FGR (Homo sapiens, UniProt P09769); test: HotSpot kinase assay; assay type: biochemical; settings: read-out: % Enzyme Activity (relative to DMSO controls)
T6 construct: purchased Reaction Biology Corporation

[8] = biological target: T7, CAMK1d (Homo sapiens, UniProt Q8IU85); test: HotSpot kinase assay; assay type: biochemical; settings: read-out: % Enzyme Activity (relative to DMSO controls)
T7 construct: purchased Reaction Biology Corporation
T7 sequence (Q8IU85 whole entry): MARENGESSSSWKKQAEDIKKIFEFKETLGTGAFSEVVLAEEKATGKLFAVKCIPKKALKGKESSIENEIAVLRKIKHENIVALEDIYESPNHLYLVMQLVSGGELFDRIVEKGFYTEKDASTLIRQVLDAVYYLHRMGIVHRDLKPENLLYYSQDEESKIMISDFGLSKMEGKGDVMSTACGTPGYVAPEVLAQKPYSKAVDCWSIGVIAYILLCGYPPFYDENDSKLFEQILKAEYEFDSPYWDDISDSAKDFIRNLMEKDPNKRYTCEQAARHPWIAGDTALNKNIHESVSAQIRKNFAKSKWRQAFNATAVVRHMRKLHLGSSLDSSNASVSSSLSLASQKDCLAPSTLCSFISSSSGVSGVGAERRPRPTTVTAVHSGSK

[9] = biological target: T8, BRSK1 (Homo sapiens, UniProt Q8TDC3); test: HotSpot kinase assay; assay type: biochemical; settings: read-out: % Enzyme Activity (relative to DMSO controls)
T8 construct: purchased Reaction Biology Corporation

[10] = Parallel artificial membrane permeability assay (PAMPA); assay type: in vitro ADME
[11] = biological target: T9, RET (Homo sapiens, UniProt P07949); test: HotSpot kinase assay; assay type: biochemical; settings: read-out: % Enzyme Activity (relative to DMSO controls)
T9 construct: purchased Reaction Biology Corporation

[12] = biological target: T10, AXL (Homo sapiens, UniProt P30530); test: HotSpot kinase assay; assay type: biochemical; settings: read-out: % Enzyme Activity (relative to DMSO controls)
T10 construct: purchased Reaction Biology Corporation

[13] = biological target: T11, MYO3A (Homo sapiens, UniProt Q8NEV4); test: HotSpot kinase assay; assay type: biochemical; settings: read-out: % Enzyme Activity (relative to DMSO controls)
T11 construct: purchased Reaction Biology Corporation

[14] = biological target: T12, ROS/ROS1 (Homo sapiens, UniProt P08922); test: HotSpot kinase assay; assay type: biochemical; settings: read-out: % Enzyme Activity (relative to DMSO controls)
T12 construct: purchased Reaction Biology Corporation
T12 sequence (P08922 28-2347): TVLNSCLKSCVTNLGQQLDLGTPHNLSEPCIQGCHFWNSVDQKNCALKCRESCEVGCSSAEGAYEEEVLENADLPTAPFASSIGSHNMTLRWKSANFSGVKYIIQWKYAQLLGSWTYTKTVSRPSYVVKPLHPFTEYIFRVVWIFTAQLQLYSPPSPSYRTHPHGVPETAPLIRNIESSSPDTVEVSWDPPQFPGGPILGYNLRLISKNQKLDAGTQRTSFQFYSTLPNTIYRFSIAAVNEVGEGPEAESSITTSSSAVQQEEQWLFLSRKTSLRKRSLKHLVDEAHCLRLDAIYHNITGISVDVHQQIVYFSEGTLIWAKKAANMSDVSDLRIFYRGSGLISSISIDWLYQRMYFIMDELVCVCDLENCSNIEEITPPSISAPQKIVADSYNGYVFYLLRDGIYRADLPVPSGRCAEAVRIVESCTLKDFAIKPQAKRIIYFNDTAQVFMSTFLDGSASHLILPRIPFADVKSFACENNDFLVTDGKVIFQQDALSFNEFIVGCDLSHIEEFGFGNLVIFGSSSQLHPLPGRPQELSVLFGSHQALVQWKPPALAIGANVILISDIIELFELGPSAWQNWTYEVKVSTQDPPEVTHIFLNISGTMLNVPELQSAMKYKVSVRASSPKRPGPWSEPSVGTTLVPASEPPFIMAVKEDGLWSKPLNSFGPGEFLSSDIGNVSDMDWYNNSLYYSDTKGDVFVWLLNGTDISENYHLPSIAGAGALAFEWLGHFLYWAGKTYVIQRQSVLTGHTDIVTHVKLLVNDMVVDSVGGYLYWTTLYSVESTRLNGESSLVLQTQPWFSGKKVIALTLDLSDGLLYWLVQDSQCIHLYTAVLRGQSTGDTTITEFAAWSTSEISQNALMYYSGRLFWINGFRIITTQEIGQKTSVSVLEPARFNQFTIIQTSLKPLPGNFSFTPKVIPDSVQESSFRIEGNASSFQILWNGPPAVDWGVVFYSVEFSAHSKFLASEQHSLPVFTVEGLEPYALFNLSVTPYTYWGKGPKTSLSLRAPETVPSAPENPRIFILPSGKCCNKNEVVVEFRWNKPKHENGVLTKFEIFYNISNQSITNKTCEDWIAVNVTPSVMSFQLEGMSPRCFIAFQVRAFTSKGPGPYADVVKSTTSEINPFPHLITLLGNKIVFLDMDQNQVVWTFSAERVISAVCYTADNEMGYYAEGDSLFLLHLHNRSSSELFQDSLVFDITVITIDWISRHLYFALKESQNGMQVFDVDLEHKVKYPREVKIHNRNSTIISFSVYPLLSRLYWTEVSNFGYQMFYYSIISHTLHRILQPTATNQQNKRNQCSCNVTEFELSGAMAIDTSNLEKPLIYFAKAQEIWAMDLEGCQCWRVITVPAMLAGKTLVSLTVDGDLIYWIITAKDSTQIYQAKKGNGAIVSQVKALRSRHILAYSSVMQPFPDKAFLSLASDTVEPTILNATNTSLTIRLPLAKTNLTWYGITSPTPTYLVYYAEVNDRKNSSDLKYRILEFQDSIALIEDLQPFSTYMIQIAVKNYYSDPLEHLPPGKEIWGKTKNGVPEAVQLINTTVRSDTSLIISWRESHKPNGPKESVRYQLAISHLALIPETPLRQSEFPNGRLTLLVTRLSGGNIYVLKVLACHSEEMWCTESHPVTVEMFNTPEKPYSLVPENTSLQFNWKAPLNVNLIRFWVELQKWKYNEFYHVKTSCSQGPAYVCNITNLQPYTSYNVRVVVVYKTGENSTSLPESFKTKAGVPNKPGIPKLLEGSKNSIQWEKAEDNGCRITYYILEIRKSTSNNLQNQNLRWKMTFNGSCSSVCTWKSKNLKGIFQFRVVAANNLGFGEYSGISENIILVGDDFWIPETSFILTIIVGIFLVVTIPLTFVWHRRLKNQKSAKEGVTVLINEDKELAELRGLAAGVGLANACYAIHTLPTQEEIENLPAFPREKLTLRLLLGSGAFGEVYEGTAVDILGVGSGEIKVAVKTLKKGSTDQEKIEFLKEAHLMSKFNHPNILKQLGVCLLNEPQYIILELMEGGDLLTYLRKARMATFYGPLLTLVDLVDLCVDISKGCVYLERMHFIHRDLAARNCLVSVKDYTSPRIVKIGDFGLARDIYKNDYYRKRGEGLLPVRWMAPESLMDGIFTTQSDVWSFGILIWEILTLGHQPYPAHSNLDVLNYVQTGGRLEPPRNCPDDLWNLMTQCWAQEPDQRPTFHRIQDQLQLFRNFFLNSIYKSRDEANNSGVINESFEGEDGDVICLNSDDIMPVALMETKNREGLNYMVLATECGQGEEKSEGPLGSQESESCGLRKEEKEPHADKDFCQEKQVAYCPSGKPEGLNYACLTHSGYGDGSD

[15] = biological target: T13, ERN1/IRE1 (Homo sapiens, UniProt O75460); test: HotSpot kinase assay; assay type: biochemical; settings: read-out: % Enzyme Activity (relative to DMSO controls)
T13 construct: purchased Reaction Biology Corporation

[16] = biological target: T14, LATS1 (Homo sapiens, UniProt O95835); test: HotSpot kinase assay; assay type: biochemical; settings: read-out: % Enzyme Activity (relative to DMSO controls)
T14 construct: purchased Reaction Biology Corporation

[17] = biological target: T15, MAPKAPK3 (Homo sapiens, UniProt Q16644); test: HotSpot kinase assay; assay type: biochemical; settings: read-out: % Enzyme Activity (relative to DMSO controls)
T15 construct: purchased Reaction Biology Corporation

[18] = test system: HSV-2(G); test: HSV plaque assay, primary vaginal cells; assay type: cell-based; settings: Human alphaherpesvirus 2, read-out: inhibition of HSV-2 infection
Method: After 48 h incubation, plaques were counted by immunoassay using an anti–human IgG antibody peroxidase conjugate (PA1-86064, Thermo Fisher)[33]. […] Western blots were prepared and probed for gD as a marker of bound virus and β-actin as a control.

[19] = biological target: T16, ERK2/MAPK1 (Homo sapiens, UniProt P28482); test: HotSpot kinase assay; assay type: biochemical; settings: read-out: % Enzyme Activity (relative to DMSO controls)
T16 construct: purchased Reaction Biology Corporation

[20] = biological target: T17, ALK (Homo sapiens, UniProt Q9UM73); test: HotSpot kinase assay; assay type: biochemical; settings: read-out: % Enzyme Activity (relative to DMSO controls)
T17 construct: purchased Reaction Biology Corporation

[21] = biological target: T18, c-Src (Homo sapiens, UniProt P12931); test: biochemical
T18 construct: purchased Reaction Biology Corporation
T18 sequence (P12931 whole entry): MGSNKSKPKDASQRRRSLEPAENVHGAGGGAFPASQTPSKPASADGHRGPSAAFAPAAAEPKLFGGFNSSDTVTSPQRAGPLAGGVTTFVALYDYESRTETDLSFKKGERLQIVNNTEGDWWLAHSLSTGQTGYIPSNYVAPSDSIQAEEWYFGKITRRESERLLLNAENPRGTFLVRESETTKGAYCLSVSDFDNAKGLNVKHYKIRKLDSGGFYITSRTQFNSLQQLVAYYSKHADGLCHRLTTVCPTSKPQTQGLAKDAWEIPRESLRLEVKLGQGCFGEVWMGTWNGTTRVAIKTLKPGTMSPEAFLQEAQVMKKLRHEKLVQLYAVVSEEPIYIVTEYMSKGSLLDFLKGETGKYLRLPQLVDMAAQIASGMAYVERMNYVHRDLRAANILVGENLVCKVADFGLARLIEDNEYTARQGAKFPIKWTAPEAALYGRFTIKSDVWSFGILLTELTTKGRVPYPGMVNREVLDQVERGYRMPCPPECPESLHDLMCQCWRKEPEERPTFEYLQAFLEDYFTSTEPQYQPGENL

[22] = biological target: T19, PKCzeta (Homo sapiens, UniProt Q05513); test: HotSpot kinase assay; assay type: biochemical; settings: read-out: % Enzyme Activity (relative to DMSO controls)
T19 construct: purchased Reaction Biology Corporation

[23] = biological target: T20, TYK2 (Homo sapiens, UniProt P29597); test: HotSpot kinase assay; assay type: biochemical; settings: read-out: % Enzyme Activity (relative to DMSO controls)
T20 construct: purchased Reaction Biology Corporation

[24] = biological target: T21, TYRO3/SKY (Homo sapiens, UniProt Q06418); test: HotSpot kinase assay; assay type: biochemical; settings: read-out: % Enzyme Activity (relative to DMSO controls)
T21 construct: purchased Reaction Biology Corporation

[25] = biological target: T22, PBK/TOPK (Homo sapiens, UniProt Q96KB5); test: HotSpot kinase assay; assay type: biochemical; settings: read-out: % Enzyme Activity (relative to DMSO controls)
T22 construct: purchased Reaction Biology Corporation
T22 sequence (Q96KB5 whole entry): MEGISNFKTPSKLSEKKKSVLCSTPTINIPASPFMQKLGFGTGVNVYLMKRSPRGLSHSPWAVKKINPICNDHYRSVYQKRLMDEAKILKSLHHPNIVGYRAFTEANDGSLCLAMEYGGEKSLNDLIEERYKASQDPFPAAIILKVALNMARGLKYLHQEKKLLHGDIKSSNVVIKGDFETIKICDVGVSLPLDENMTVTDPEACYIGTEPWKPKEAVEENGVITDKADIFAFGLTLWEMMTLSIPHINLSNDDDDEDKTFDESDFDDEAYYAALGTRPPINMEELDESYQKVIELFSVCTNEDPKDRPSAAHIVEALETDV

[26] = biological target: T23, MARK1 (Homo sapiens, UniProt Q9P0L2); test: HotSpot kinase assay; assay type: biochemical; settings: read-out: % Enzyme Activity (relative to DMSO controls)
T23 construct: purchased Reaction Biology Corporation

[27] = biological target: T24, DYRK3 (Homo sapiens, UniProt O43781); test: HotSpot kinase assay; assay type: biochemical; settings: read-out: % Enzyme Activity (relative to DMSO controls)
T24 construct: purchased Reaction Biology Corporation

[28] = biological target: T25, PDK1/PDPK1 (Homo sapiens, UniProt O15530); test: biochemical
T25 construct: purchased Reaction Biology Corporation
T25 sequence (O15530 1-556): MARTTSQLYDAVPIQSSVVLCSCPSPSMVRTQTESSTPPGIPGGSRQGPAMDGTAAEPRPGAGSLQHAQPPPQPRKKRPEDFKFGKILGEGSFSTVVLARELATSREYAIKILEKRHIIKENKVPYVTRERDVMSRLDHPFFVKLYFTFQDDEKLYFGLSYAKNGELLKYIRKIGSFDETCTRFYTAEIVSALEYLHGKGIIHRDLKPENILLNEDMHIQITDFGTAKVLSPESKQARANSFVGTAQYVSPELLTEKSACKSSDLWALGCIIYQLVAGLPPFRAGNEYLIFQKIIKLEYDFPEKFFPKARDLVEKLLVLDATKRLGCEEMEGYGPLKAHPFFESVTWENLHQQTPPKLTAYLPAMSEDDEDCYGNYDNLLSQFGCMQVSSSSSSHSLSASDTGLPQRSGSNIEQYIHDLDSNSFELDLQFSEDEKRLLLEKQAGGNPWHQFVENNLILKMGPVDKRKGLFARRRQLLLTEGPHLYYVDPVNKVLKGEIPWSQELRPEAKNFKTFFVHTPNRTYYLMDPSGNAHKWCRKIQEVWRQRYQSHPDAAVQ

[29] = biological target: T26, AKT2 (Homo sapiens, UniProt P31751); test: biochemical
T26 construct: purchased Reaction Biology Corporation
T26 sequence (P31751 whole entry): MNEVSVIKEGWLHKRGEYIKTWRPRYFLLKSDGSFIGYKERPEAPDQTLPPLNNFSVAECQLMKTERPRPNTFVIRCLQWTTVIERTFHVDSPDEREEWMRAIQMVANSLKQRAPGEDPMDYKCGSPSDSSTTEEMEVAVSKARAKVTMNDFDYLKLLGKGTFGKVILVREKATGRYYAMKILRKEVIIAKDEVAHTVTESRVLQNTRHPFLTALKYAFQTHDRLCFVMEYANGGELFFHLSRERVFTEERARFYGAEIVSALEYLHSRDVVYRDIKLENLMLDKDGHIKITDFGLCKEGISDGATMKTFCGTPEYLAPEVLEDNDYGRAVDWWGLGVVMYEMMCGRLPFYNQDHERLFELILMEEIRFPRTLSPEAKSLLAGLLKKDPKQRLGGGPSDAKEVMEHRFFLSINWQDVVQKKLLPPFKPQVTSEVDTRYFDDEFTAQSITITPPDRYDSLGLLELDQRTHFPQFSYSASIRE

[30] = test system: HaCat cells; test: viability of confluent cells; assay type: cell-based, human; settings: 10 μM; for viability, odu as a percentage of the DMSO control: replicates (Fig 1c source data)
[31] = viability of confluent cells; assay type: cell-based, human; settings: human, HaCat cells at 90–100% confluence, 120 h, replicates (Fig 1c source data), read-out: viability, odu as a percentage of the DMSO control
[32] = Supplementary Table 1, read-out: IC50 (Molar concentration)
[33] = read-out: % Enzyme Activity (relative to DMSO controls), 10µM

CO[C@@H]1[C@H](N(C)C(=O)CCC(=O)NCc2cn(CCCS(=O)(=O)O)nn2)C[C@H]2O[C@]1(C)n1c3ccccc3c3c4c(c5c6ccccc6n2c5c31)C(=O)NC4 [CIMSS]
authentic SARS-CoV-2 (WA1/2020) infection [1]: inhibitory activity
remaining activity at 10 µM [2]: 1.13%
remaining activity at 10 µM [3]: 13.6%
remaining activity at 10 µM [4]: 6.64%
remaining activity at 10 µM [5]: 102%
remaining activity at 10 µM [6]: 111%
remaining activity at 10 µM [7]: 1.68%
remaining activity at 10 µM [8]: 20.3%
remaining activity at 10 µM [9]: 1.55%
Recover % ([10]; 100 µM): 83%
Papp at 5 h, 100 μM ([10]; PAMPA, PBS pH 7.4, 5 h): 0.005 ×10⁻⁶ cm/s
remaining activity at 10 µM [11]: 2.1%
remaining activity at 10 µM [12]: 3.61%
remaining activity at 10 µM [13]: 6.46%
remaining activity at 10 µM [14]: 4.57%
remaining activity at 10 µM [15]: 8.49%
remaining activity at 10 µM [16]: 9.89%
remaining activity at 10 µM [17]: 87.5%
inhibition at 10 µM [18]: > 75%
remaining activity at 10 µM [19]: 75.3%
remaining activity at 10 µM [20]: 4.12%
IC50 [21, 32]: 11.9 nM
remaining activity at 10 µM [21, 33]: 2.95%
remaining activity at 10 µM [22]: 55.8%
remaining activity at 10 µM [23]: 6.35%
remaining activity at 10 µM [24]: 23.6%
remaining activity at 10 µM [25]: 69.8%
remaining activity at 10 µM [26]: 1.18%
remaining activity at 10 µM [27]: 28.2%
IC50 ([28]; Supplementary Table 1, PDPK1, read-out: IC50 (Molar concentration)): 0.278 nM
remaining activity at 10 µM [28, 33]: 4.24%
inhibition at 10 µM ([28]; read-out: inhibition of PDPK1): > 75%
IC50 [29, 32]: 1000 nM
remaining activity at 10 µM [29, 33]: 19.1%
inhibition at 10 µM ([29]; read-out: inhibition of Akt2): > 75%
viability, odu as a percentage of the DMSO control ([30]; 24 h): 123% and 93.2% and 107%
viability, odu as a percentage of the DMSO control ([30]; 120 h): 88.4% and 84%
cytotoxicity ([30]; up to 120 h): little or no cytotoxicity
viability at 120 h, 10 µM [31]: 98%
